Seven compounds from patent US12139520B2 (priority 2020, dated 2024) can be followed below.

Bridge positions count the residues as written; N and C are the ends. Square brackets hold non-standard residues; d marks the D form. Peptide text beside a SMILES is read from it. Hyp = O=C(O)[C@@H]1C[C@@H](O)CN1; Cit = NC(=O)NCCC[C@H](N)C(=O)O

In one series the target is hAM1 receptor (Homo sapiens, UniProt O60895+Q16602). The series is described as follows: cAMP assay for in vitro receptor activation, hAM1-R. The format is cell-based. Conditions: cAMP assay, hAM1 receptor; read-out: hAM1R EC50. Put shortly: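 Receptor activation, read as cAMP, was assessed in thawed cells of a monoclonal hAM1-overexpressing stable line, plated at 8000 cells/well in DPBS supplemented with 0.05% casein and 0.5 mM IBMX.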

The nature of series [1]: Physical stability of peptide analogues (Thioflavin T fibrillation). The format is physicochemical. Particulars: maximum ThT signal normalized between hAMY maximum and buffer background; 40° C., shaking, four days; pH 7 per table title. The method in brief:
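Samples are stressed at 40 °C for four days, being shaken at 700 rpm before each 10-min fluorescence reading of 4 μM Thioflavin T. Buffers were pH 4 acetate or pH 7 phosphate. Reported values are smoothed maximum ThT signals as a percentage of the hAMY-to-background range.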

hAM1 receptor, sequence (Q16602 23-461): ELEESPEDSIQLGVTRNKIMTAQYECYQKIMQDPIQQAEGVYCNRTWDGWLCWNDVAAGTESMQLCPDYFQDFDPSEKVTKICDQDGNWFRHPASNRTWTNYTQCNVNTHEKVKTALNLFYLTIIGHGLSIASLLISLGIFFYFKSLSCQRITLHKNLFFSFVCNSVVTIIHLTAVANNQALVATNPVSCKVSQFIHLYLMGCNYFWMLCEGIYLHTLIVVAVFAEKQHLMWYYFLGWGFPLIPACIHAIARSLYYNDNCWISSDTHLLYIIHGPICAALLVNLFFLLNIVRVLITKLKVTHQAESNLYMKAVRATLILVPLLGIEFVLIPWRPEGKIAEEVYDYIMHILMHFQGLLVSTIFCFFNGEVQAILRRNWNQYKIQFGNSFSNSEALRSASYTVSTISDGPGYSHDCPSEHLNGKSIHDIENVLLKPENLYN
hAM1 receptor, sequence (O60895 43-175 partner): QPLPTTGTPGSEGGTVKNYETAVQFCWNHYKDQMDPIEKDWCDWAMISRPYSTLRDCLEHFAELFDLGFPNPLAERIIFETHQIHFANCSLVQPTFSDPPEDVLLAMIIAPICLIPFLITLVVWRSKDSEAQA

For the compound `CC[C@H](C)[C@H](NC(=O)[C@H](CCC(N)=O)NC(=O)[C@H](Cc1c[nH]cn1)NC(=O)[C@H](C)NC(=O)[C@H](CC(C)C)NC(=O)[C@H](Cc1c[nH]c2ccccc12)NC(=O)[C@H](CCC(N)=O)NC(=O)[C@@H](NC(=O)[C@@H](NC(=O)[C@@H]1CSSC[C@H](NC(=O)CN)C(=O)N[C@@H](CCCNC(=N)N)C(=O)N[C@@H]([C@@H](C)O)C(=O)NCC(=O)N[C@@H]([C@@H](C)O)C(=O)N1)[C@@H](C)O)C(C)C)C(=O)N[C@@H](Cc1ccc(O)cc1)C(=O)N[C@@H](CCC(N)=O)C(=O)N[C@@H](Cc1ccccc1)C(=O)N[C@H](C(=O)N[C@@H](CC(=O)O)C(=O)N[C@@H](CCCCN)C(=O)N[C@@H](CC(=O)O)C(=O)N[C@@H](CCCCN)C(=O)N[C@@H](CC(=O)O)C(=O)N[C@@H](CC(N)=O)C(=O)N[C@H](C(=O)N[C@@H](C)C(=O)N1CCC[C@H]1C(=O)N[C@@H](CCCNC(=N)N)C(=O)N[C@@H](CO)C(=O)N[C@@H](CC(N)=O)C(=O)N[C@H](C(=O)N[C@@H](CO)C(=O)N1CCC[C@H]1C(=O)N[C@@H](CC(N)=O)C(=O)NCC(=O)N1C[C@H](O)C[C@H]1C(N)=O)C(C)C)C(C)C)[C@@H](C)O` [compound 360] (H-GCRTGTCTVQWLAHQIYQFTDKDKDNVAPRSNVSPNG[Hyp]-NH2; disulfide 2-7), the EC50 (commonly the midpoint of the concentration-response curve) on hAM1 receptor is more than 5 µM. In addition, in series [1], the “Max ThT signal (%)” value is 26.350%.
Taken in the same sequence, the figures for `CC[C@H](C)[C@H](NC(=O)[C@H](CCC(N)=O)NC(=O)[C@H](Cc1c[nH]cn1)NC(=O)[C@H](C)NC(=O)[C@H](CC(C)C)NC(=O)[C@H](CCCNC(=N)N)NC(=O)[C@H](CCC(N)=O)NC(=O)[C@@H](NC(=O)[C@@H](NC(=O)[C@@H]1CSSC[C@H](NC(=O)CN)C(=O)N[C@@H](CCCNC(=N)N)C(=O)N[C@@H](Cc2ccccc2)C(=O)NCC(=O)N[C@@H]([C@@H](C)O)C(=O)N1)[C@@H](C)O)C(C)C)C(=O)N[C@@H](Cc1ccc(O)cc1)C(=O)N[C@@H](CCC(N)=O)C(=O)N[C@@H](Cc1ccccc1)C(=O)N[C@H](C(=O)N[C@@H](CC(=O)O)C(=O)N[C@@H](CCCCN)C(=O)N[C@@H](CC(=O)O)C(=O)N[C@@H](CCCCN)C(=O)N[C@@H](CC(=O)O)C(=O)N[C@@H](CC(N)=O)C(=O)N[C@H](C(=O)N[C@@H](C)C(=O)N1CCC[C@H]1C(=O)N[C@@H](CO)C(=O)N[C@@H](CO)C(=O)N[C@@H](CCCCN)C(=O)N[C@H](C(=O)N[C@@H](CO)C(=O)N1CCC[C@H]1C(=O)N[C@@H](CCC(N)=O)C(=O)N[C@H](C(=O)N1C[C@H](O)C[C@H]1C(N)=O)[C@@H](C)O)[C@@H](C)CC)C(C)C)[C@@H](C)O` [compound 240] (H-GCRFGTCTVQRLAHQIYQFTDKDKDNVAPSSKISPQT[Hyp]-NH2; disulfide 2-7; N-terminus assumed) were more than 5 µM and 3.700%.
For the compound `CC[C@H](C)[C@H](NC(=O)[C@H](CCC(N)=O)NC(=O)[C@H](Cc1c[nH]cn1)NC(=O)[C@H](C)NC(=O)[C@H](CC(C)C)NC(=O)[C@H](CCCNC(N)=O)NC(=O)[C@H](CCC(N)=O)NC(=O)[C@@H](NC(=O)[C@@H](NC(=O)[C@@H]1CSSC[C@H](NC(=O)CN)C(=O)N[C@@H](CCCNC(=N)N)C(=O)N[C@@H]([C@@H](C)O)C(=O)NCC(=O)N[C@@H]([C@@H](C)O)C(=O)N1)[C@@H](C)O)C(C)C)C(=O)N[C@@H](Cc1ccc(O)cc1)C(=O)N[C@@H](CCC(N)=O)C(=O)N[C@@H](Cc1ccccc1)C(=O)N[C@H](C(=O)N[C@@H](CC(=O)O)C(=O)N[C@@H](CCCCN)C(=O)N[C@@H](CC(=O)O)C(=O)N[C@@H](CCCCN)C(=O)N[C@@H](CC(=O)O)C(=O)N[C@@H](CC(N)=O)C(=O)N[C@H](C(=O)N[C@@H](C)C(=O)N1CCC[C@H]1C(=O)N[C@@H](CCCNC(=N)N)C(=O)N[C@@H](CO)C(=O)N[C@@H](CC(N)=O)C(=O)N[C@H](C(=O)N[C@@H](CO)C(=O)N1CCC[C@H]1C(=O)N[C@@H](CC(N)=O)C(=O)NCC(=O)N1C[C@H](O)C[C@H]1C(N)=O)C(C)C)C(C)C)[C@@H](C)O` [compound 304] (H-GCRTGTCTVQ[Cit]LAHQIYQFTDKDKDNVAPRSNVSPNG[Hyp]-NH2; disulfide 2-7), the EC50 on hAM1 receptor was more than 5 µM. In addition, in series [1], the “Max ThT signal (%)” value is reported as 22.350%.
Taken in the same sequence, the figures for `CC(C)C[C@H](NC(=O)[C@H](CCCNC(=N)N)NC(=O)[C@H](CCC(N)=O)NC(=O)[C@@H](NC(=O)[C@@H](NC(=O)[C@@H]1CSSC[C@H](NC(=O)[C@@H](N)CCCCN)C(=O)N[C@@H](CC(N)=O)C(=O)N[C@@H]([C@@H](C)O)C(=O)N[C@@H](C)C(=O)N[C@@H]([C@@H](C)O)C(=O)N1)[C@@H](C)O)C(C)C)C(=O)N[C@@H](C)C(=O)N[C@@H](Cc1c[nH]cn1)C(=O)N[C@@H](CCC(N)=O)C(=O)N[C@@H](C)C(=O)N[C@@H](Cc1ccc(O)cc1)C(=O)N[C@@H](CCC(N)=O)C(=O)N[C@@H](Cc1ccccc1)C(=O)N[C@H](C(=O)N[C@@H](CC(=O)O)C(=O)N[C@@H](CCCCN)C(=O)N[C@@H](CC(=O)O)C(=O)N[C@@H](CCCCN)C(=O)N[C@@H](CC(=O)O)C(=O)N[C@@H](CC(N)=O)C(=O)N[C@H](C(=O)N[C@@H](C)C(=O)N1CCC[C@H]1C(=O)N1CCC[C@H]1C(=O)N[C@H](C(=O)N[C@@H](CC(N)=O)C(=O)N[C@H](C(=O)NCC(=O)N[C@@H](CO)C(=O)N[C@@H](CC(N)=O)C(=O)NCC(=O)N1C[C@H](O)C[C@H]1C(N)=O)C(C)C)[C@@H](C)O)C(C)C)[C@@H](C)O` [compound 210] (H-KCNTATCTVQRLAHQAYQFTDKDKDNVAPPTNVGSNG[Hyp]-NH2; disulfide 2-7) were more than 5 µM and 1.400%.
Turning to `CC[C@H](C)[C@H](NC(=O)[C@H](CCC(N)=O)NC(=O)[C@H](Cc1c[nH]cn1)NC(=O)[C@H](C)NC(=O)[C@H](CC(C)C)NC(=O)[C@H](CCCNC(N)=O)NC(=O)[C@H](CCC(N)=O)NC(=O)[C@@H](NC(=O)[C@@H](NC(=O)[C@@H]1CSSC[C@H](NC(=O)CN)C(=O)N[C@@H](CCCNC(=N)N)C(=O)N[C@@H](Cc2c[nH]c3ccccc23)C(=O)NCC(=O)N[C@@H]([C@@H](C)O)C(=O)N1)[C@@H](C)O)C(C)C)C(=O)N[C@@H](Cc1ccc(O)cc1)C(=O)N[C@@H](CCC(N)=O)C(=O)N[C@@H](Cc1ccccc1)C(=O)N[C@H](C(=O)N[C@@H](CC(=O)O)C(=O)N[C@@H](CCCCN)C(=O)N[C@@H](CC(=O)O)C(=O)N[C@@H](CCCCN)C(=O)N[C@@H](CC(=O)O)C(=O)N[C@@H](CC(N)=O)C(=O)N[C@H](C(=O)N[C@@H](C)C(=O)N1CCC[C@H]1C(=O)N[C@@H](CCCNC(=N)N)C(=O)N[C@@H](CO)C(=O)N[C@@H](CCCCN)C(=O)N[C@H](C(=O)N[C@@H](CO)C(=O)N1CCC[C@H]1C(=O)N[C@@H](CCC(N)=O)C(=O)N[C@H](C(=O)N1C[C@H](O)C[C@H]1C(N)=O)[C@@H](C)O)[C@@H](C)CC)C(C)C)[C@@H](C)O` [compound 296] (H-GCRWGTCTVQ[Cit]LAHQIYQFTDKDKDNVAPRSKISPQT[Hyp]-NH2; disulfide 2-7; N-terminus assumed), the concentration giving a half-maximal response (EC50) on hAM1 receptor is more than 5 µM. Also, in series [1], the “Max ThT signal (%)” value came to 26.050%.
On to `CC[C@H](C)[C@H](NC(=O)[C@H](CCCCN)NC(=O)[C@@H](NC(=O)[C@H](CCCNC(=N)N)NC(=O)[C@@H]1CCCN1C(=O)[C@H](C)NC(=O)[C@@H](NC(=O)[C@H](CC(N)=O)NC(=O)[C@H](CC(=O)O)NC(=O)[C@H](CCCCN)NC(=O)[C@H](CC(=O)O)NC(=O)[C@H](CCCCN)NC(=O)[C@H](CC(=O)O)NC(=O)[C@@H](NC(=O)[C@H](Cc1ccccc1)NC(=O)[C@H](CCC(N)=O)NC(=O)[C@H](Cc1ccc(O)cc1)NC(=O)[C@@H](NC(=O)[C@H](CCC(N)=O)NC(=O)[C@H](Cc1c[nH]cn1)NC(=O)[C@H](C)NC(=O)[C@H](CC(C)C)NC(=O)[C@H](CCCNC(=N)N)NC(=O)[C@H](CCC(N)=O)NC(=O)[C@@H](NC(=O)[C@@H](NC(=O)[C@@H]1CSSC[C@H](NC(=O)CN)C(=O)N[C@@H](CCCNC(=N)N)C(=O)N[C@@H]([C@@H](C)O)C(=O)NCC(=O)N[C@@H]([C@@H](C)O)C(=O)N1)[C@@H](C)O)C(C)C)[C@@H](C)CC)[C@@H](C)O)C(C)C)[C@@H](C)O)C(=O)NCC(=O)N1CCC[C@H]1C(=O)N[C@@H](CC(N)=O)C(=O)NCC(=O)N1C[C@H](O)C[C@H]1C(N)=O` [compound 115] (H-GCRTGTCTVQRLAHQIYQFTDKDKDNVAPRTKIGPNG[Hyp]-NH2; disulfide 2-7; N-terminus assumed), for which the EC50 on hAM1 receptor turned out to be 0.13 µM. Further, the “Max ThT signal (%)” value in series [1] is 2.500%.
Regarding `CC[C@H](C)[C@@H]1NC(=O)[C@H](CCCNC(=N)N)NC(=O)[C@@H](NC(=O)CN)CSSC[C@@H](C(=O)N[C@H](C(=O)N[C@H](C(=O)N[C@@H](CCC(N)=O)C(=O)N[C@@H](CCCNC(N)=O)C(=O)N[C@@H](CC(C)C)C(=O)N[C@@H](C)C(=O)N[C@@H](Cc2c[nH]cn2)C(=O)N[C@@H](CCC(N)=O)C(=O)N[C@H](C(=O)N[C@@H](Cc2ccc(O)cc2)C(=O)N[C@@H](CCC(N)=O)C(=O)N[C@@H](Cc2ccccc2)C(=O)N[C@H](C(=O)N[C@@H](CC(=O)O)C(=O)N[C@@H](CCCCN)C(=O)N[C@@H](Cc2ccccc2)C(=O)N[C@@H](CCCCN)C(=O)N[C@@H](CC(=O)O)C(=O)N[C@@H](CC(N)=O)C(=O)N[C@H](C(=O)N[C@@H](C)C(=O)N2CCC[C@H]2C(=O)N[C@@H](CCCNC(=N)N)C(=O)N[C@@H](CO)C(=O)N[C@@H](CCCCN)C(=O)N[C@H](C(=O)N[C@@H](CO)C(=O)N2CCC[C@H]2C(=O)N[C@@H](CCC(N)=O)C(=O)N[C@H](C(=O)N2C[C@H](O)C[C@H]2C(N)=O)[C@@H](C)O)[C@@H](C)CC)C(C)C)[C@@H](C)O)[C@@H](C)CC)C(C)C)[C@@H](C)O)NC(=O)[C@H]([C@@H](C)O)NC(=O)CNC1=O` [compound 295] (H-GCRIGTCTVQ[Cit]LAHQIYQFTDKFKDNVAPRSKISPQT[Hyp]-NH2; disulfide 2-7; N-terminus assumed), the EC50 on hAM1 receptor was more than 5 µM. Besides, the “Max ThT signal (%)” value in series [1] is reported as 19.450%.
